Measured values reported in PubChem BioAssay (NCI).
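Tested at 5 concentrations; 48 h exposure; 96-well plates; endpoints linearly interpolated, else capped at highest concentration. Here, GI50 denotes the concentration required for 50% inhibition of growth. Definition used: TGI = concentration required for complete inhibition of growth.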

Tests used:
Assay in all cases: growth of human tumour cells (NCI), 48 h
786-0 renal = tested on: 786-0 renal
A498 renal = tested on: A498 renal
A549 NSCLC = tested on: A549 NSCLC
ACHN renal = tested on: ACHN renal
BT-549 breast = tested on: BT-549 breast
CCRF-CEM leukemia = tested on: CCRF-CEM leukemia
COLO 205 colon = tested on: COLO 205 colon
DU-145 prostate = tested on: DU-145 prostate
EKVX NSCLC = tested on: EKVX NSCLC
HCC-2998 colon = tested on: HCC-2998 colon
HCT-116 colon = tested on: HCT-116 colon
HCT-15 colon = tested on: HCT-15 colon
HL-60(TB) leukemia = tested on: HL-60(TB) leukemia
HOP-62 NSCLC = tested on: HOP-62 NSCLC
HOP-92 NSCLC = tested on: HOP-92 NSCLC
HS 578T breast = tested on: HS 578T breast
HT29 colon = tested on: HT29 colon
IGROV1 ovarian = tested on: IGROV1 ovarian
K-562 leukemia = tested on: K-562 leukemia
KM12 colon = tested on: KM12 colon
LOX IMVI melanoma = tested on: LOX IMVI melanoma
M14 melanoma = tested on: M14 melanoma
MALME-3M melanoma = tested on: MALME-3M melanoma
MCF7 breast = tested on: MCF7 breast
MDA-MB-231 breast = tested on: MDA-MB-231 breast
MDA-MB-435 = tested on: MDA-MB-435
MOLT-4 leukemia = tested on: MOLT-4 leukemia
NCI-H226 lung = tested on: NCI-H226 lung
NCI-H23 lung = tested on: NCI-H23 lung
NCI-H460 lung = tested on: NCI-H460 lung
NCI-H522 lung = tested on: NCI-H522 lung
NCI/ADR-RES ovarian = tested on: NCI/ADR-RES ovarian
OVCAR-3 ovarian = tested on: OVCAR-3 ovarian
OVCAR-4 ovarian = tested on: OVCAR-4 ovarian
OVCAR-5 ovarian = tested on: OVCAR-5 ovarian
OVCAR-8 ovarian = tested on: OVCAR-8 ovarian
PC-3 prostate = tested on: PC-3 prostate
RPMI-8226 leukemia = tested on: RPMI-8226 leukemia
RXF 393 renal = tested on: RXF 393 renal
SF-268 CNS = tested on: SF-268 CNS
SF-295 CNS = tested on: SF-295 CNS
SF-539 CNS = tested on: SF-539 CNS
SK-MEL-2 melanoma = tested on: SK-MEL-2 melanoma
SK-MEL-28 melanoma = tested on: SK-MEL-28 melanoma
SK-MEL-5 melanoma = tested on: SK-MEL-5 melanoma
SK-OV-3 ovarian = tested on: SK-OV-3 ovarian
SN12C renal = tested on: SN12C renal
SNB-19 CNS = tested on: SNB-19 CNS
SNB-75 CNS = tested on: SNB-75 CNS
SR leukemia = tested on: SR leukemia
SW-620 colon = tested on: SW-620 colon
T-47D breast = tested on: T-47D breast
TK-10 renal = tested on: TK-10 renal
U251 CNS = tested on: U251 CNS
UACC-257 melanoma = tested on: UACC-257 melanoma
UACC-62 melanoma = tested on: UACC-62 melanoma
UO-31 renal = tested on: UO-31 renal

Structure (SMILES): CCCCCC(=O)Oc1ccc(/C(=C(\C)c2ccc(OC)cc2)c2ccc(OCCN3CCCCC3)cc2)cc1
- GI50 (786-0 renal): 1.98 µM
- TGI (786-0 renal): 5.61 µM
- GI50 (A498 renal): 13.5 µM
- TGI (A498 renal): 26.5 µM
- GI50 (A549 NSCLC): 10.1 µM
- TGI (A549 NSCLC): 22.4 µM
- GI50 (ACHN renal): 10.7 µM
- TGI (ACHN renal): 22.6 µM
- GI50 (BT-549 breast): 10.7 µM
- TGI (BT-549 breast): 23.2 µM
- GI50 (CCRF-CEM leukemia): 4.2 µM
- TGI (CCRF-CEM leukemia): 31.8 µM
- GI50 (COLO 205 colon): 2.02 µM
- TGI (COLO 205 colon): 4.55 µM
- GI50 (DU-145 prostate): 13.5 µM
- TGI (DU-145 prostate): 26.6 µM
- GI50 (EKVX NSCLC): 9.92 µM
- TGI (EKVX NSCLC): 22.7 µM
- GI50 (HCC-2998 colon): 12.5 µM
- TGI (HCC-2998 colon): 25.5 µM
- GI50 (HCT-116 colon): 7.36 µM
- TGI (HCT-116 colon): 20.5 µM
- GI50 (HCT-15 colon): 2.92 µM
- TGI (HCT-15 colon): 10.2 µM
- GI50 (HL-60(TB) leukemia): 3.98 µM
- TGI (HL-60(TB) leukemia): 17.8 µM
- GI50 (HOP-62 NSCLC): 5.73 µM
- TGI (HOP-62 NSCLC): 19.8 µM
- GI50 (HOP-92 NSCLC): 3.83 µM
- TGI (HOP-92 NSCLC): 17 µM
- GI50 (HS 578T breast): 4.76 µM
- TGI (HS 578T breast): 25.1 µM
- GI50 (HT29 colon): 3.36 µM
- TGI (HT29 colon): 13.4 µM
- GI50 (IGROV1 ovarian): 10.4 µM
- TGI (IGROV1 ovarian): 25.9 µM
- GI50 (K-562 leukemia): 3.16 µM
- TGI (K-562 leukemia): 16.2 µM
- GI50 (KM12 colon): 8.83 µM
- TGI (KM12 colon): 27 µM
- GI50 (LOX IMVI melanoma): 2.19 µM
- TGI (LOX IMVI melanoma): 5.22 µM
- GI50 (M14 melanoma): 2.02 µM
- TGI (M14 melanoma): 4.37 µM
- GI50 (MALME-3M melanoma): 2.84 µM
- TGI (MALME-3M melanoma): 10.4 µM
- GI50 (MCF7 breast): 0.726 µM
- TGI (MCF7 breast): 14.4 µM
- GI50 (MDA-MB-231 breast): 9.32 µM
- TGI (MDA-MB-231 breast): 21.9 µM
- GI50 (MDA-MB-435): 7.93 µM
- TGI (MDA-MB-435): 20.7 µM
- GI50 (MOLT-4 leukemia): 3.54 µM
- TGI (MOLT-4 leukemia): 18.8 µM
- GI50 (NCI-H226 lung): 17.3 µM
- TGI (NCI-H226 lung): 38.4 µM
- GI50 (NCI-H23 lung): 10.1 µM
- TGI (NCI-H23 lung): 23.8 µM
- GI50 (NCI-H460 lung): 4.42 µM
- TGI (NCI-H460 lung): 15.8 µM
- GI50 (NCI-H522 lung): 14.4 µM
- TGI (NCI-H522 lung): 30.5 µM
- GI50 (NCI/ADR-RES ovarian): 11 µM
- TGI (NCI/ADR-RES ovarian): 26.1 µM
- GI50 (OVCAR-3 ovarian): 11.6 µM
- TGI (OVCAR-3 ovarian): 25.2 µM
- GI50 (OVCAR-4 ovarian): 4.95 µM
- TGI (OVCAR-4 ovarian): 18.5 µM
- GI50 (OVCAR-5 ovarian): 12.7 µM
- TGI (OVCAR-5 ovarian): 27 µM
- GI50 (OVCAR-8 ovarian): 12.8 µM
- TGI (OVCAR-8 ovarian): 29.6 µM
- GI50 (PC-3 prostate): 5.65 µM
- TGI (PC-3 prostate): 18.7 µM
- GI50 (RPMI-8226 leukemia): 3.24 µM
- GI50 (RXF 393 renal): 1.8 µM
- TGI (RXF 393 renal): 9.52 µM
- GI50 (SF-268 CNS): 11.6 µM
- TGI (SF-268 CNS): 26.9 µM
- GI50 (SF-295 CNS): 2.28 µM
- TGI (SF-295 CNS): 6.32 µM
- GI50 (SF-539 CNS): 3.56 µM
- TGI (SF-539 CNS): 14 µM
- GI50 (SK-MEL-2 melanoma): 10.5 µM
- TGI (SK-MEL-2 melanoma): 23.8 µM
- GI50 (SK-MEL-28 melanoma): 3.6 µM
- TGI (SK-MEL-28 melanoma): 12.8 µM
- GI50 (SK-MEL-5 melanoma): 1.8 µM
- TGI (SK-MEL-5 melanoma): 3.57 µM
- GI50 (SK-OV-3 ovarian): 10.6 µM
- TGI (SK-OV-3 ovarian): 22.7 µM
- GI50 (SN12C renal): 10.8 µM
- TGI (SN12C renal): 23.5 µM
- GI50 (SNB-19 CNS): 11.4 µM
- TGI (SNB-19 CNS): 24.8 µM
- GI50 (SNB-75 CNS): 10.2 µM
- TGI (SNB-75 CNS): 26.3 µM
- GI50 (SR leukemia): 2.71 µM
- TGI (SR leukemia): 22.2 µM
- GI50 (SW-620 colon): 3.59 µM
- TGI (SW-620 colon): 14 µM
- GI50 (T-47D breast): 2 µM
- TGI (T-47D breast): 16.5 µM
- GI50 (TK-10 renal): 17.5 µM
- TGI (TK-10 renal): 31.8 µM
- GI50 (U251 CNS): 5.13 µM
- TGI (U251 CNS): 17.6 µM
- GI50 (UACC-257 melanoma): 2.31 µM
- TGI (UACC-257 melanoma): 5.83 µM
- GI50 (UACC-62 melanoma): 7.19 µM
- TGI (UACC-62 melanoma): 20 µM
- GI50 (UO-31 renal): 3 µM
- TGI (UO-31 renal): 14.4 µM
